Source: US4022903A, “α-Thienyl and α-substituted thienyl, phenyl and substituted phenyl cyclopropylomethanols useful as biodegradable insecticides and mollusicides” (Abbott Laboratories, priority 1975, dated 1977)

Columns and labels:
[1] = test system: newly hatched snails of the strain B. glabrata; experiment: Molluscicide activity, newly hatched snails; format: in vivo; details: 24 hours, 26° C, 0/10-2/10 inactive, 3/10-7/10 partially active, 8/10-10/10 active
mites = experiment: Leaf Disc Mite Assay; format: in vivo; details: 48 hours, adult mites
Protocol: A stock solution of 50,000 ppm is prepared. The solution consists of 25 percent DMF, 75 percent IPA and approximately 4 percent Tween 20. The stock solution is diluted (1:20) to a concentration of 2500 ppm using as a diluent 70 percent acetone containing 0.1 percent Tween 20. The 2500 ppm solution is used for the initial screen.
Leaf discs 15 mm in diameter are cut from fresh Henderson Bush Lima Bean plants. Discs are then dropped in the appropriate dilution of the chemical being tested.
The leaf discs are allowed to dry and then placed on moistened filter paper in appropriately labeled petri dishes. Ten adult mites are placed on each disc. Nine discs are used for each compound. Percent mortality is determined after 48 hours.
When a compound is rated very active, 1:10 dilutions are made of the 2500 stock.

Adult snails = experiment: Molluscicide activity, adult snails; format: in vivo; details: 0/10-2/10 inactive, 3/10-7/10 partially active, 8/10-10/10 active
Mice oral LD 50 = details: mouse, in vivo, orally

Row | Compound | Molluscicide, mortality, New ([1]; 1 ppm) | Molluscicide, mortality, New ([1]; 10 ppm) | Mites, percent mortality (activity rating) (mites; 500 ppm) | Mites, percent mortality (activity rating) (mites; 2500 ppm) | Molluscicide, mortality, Adult (Adult snails; 1 ppm) | Molluscicide, mortality, Adult (Adult snails; 10 ppm) | LD50 (Mice oral LD 50) [mg/kg]
1 | OC(c1ccc(Cl)cc1)(c1ccc(Cl)s1)C1CC1 (stereo not drawn) [compound 4] | 7/10 | 10/10 | A (50-80 percent mortality is rated active (A)) | VA (80-100 percent mortality are rated very active (VA)) | 0/10 | 9/10 | 
2 | OC(c1ccc(F)cc1)(c1ccc(Cl)s1)C1CC1 (stereo not drawn) [compound 9] | 5/10 | 10/10 |  |  | 0/10 | 9/10 | > 300
3 | OC(c1ccc(Cl)cc1)(c1cccs1)C1CC1 (stereo not drawn) [compound 1] | 6/10 | 10/10 |  | SIA (25-50 percent is slightly active (SIA)) | 0/10 | 6/10 | 
4 | Cc1ccc(C(O)(c2ccc(Cl)s2)C2CC2)cc1 (stereo not drawn) [compound 7] | 4/10 | 10/10 |  |  | 0/10 | 9/10 | > 1000
5 | OC(c1ccc(C(F)(F)F)cc1)(c1cccs1)C1CC1 (stereo not drawn) [compound 2] | 4/10 | 10/10 |  | SIA (25-50 percent is slightly active (SIA)) | 0/10 | 6/10 | 
6 | OC(c1ccc(Br)cc1)(c1ccc(Cl)s1)C1CC1 (stereo not drawn) [compound 8] | 10/10 | 10/10 |  | VA (80-100 percent mortality are rated very active (VA)) | 3/10 | 9/10 | 
7 | α-(5-Chloro-2-Thienyl)4-Chlorophenylcyclopropylmethanol [No. 4] | 0/10 | 0/10 |  |  | 0/10 | 0/10 | 
8 | OC(c1ccc(C(F)(F)F)cc1)(c1ccc(Cl)s1)C1CC1 (stereo not drawn) [compound 5] | 8/10 | 10/10 | A (50-80 percent mortality is rated active (A)) | VA (80-100 percent mortality are rated very active (VA)) | 1/10 | 0/10 | > 1000
